Reference: patent US6582899B1, “Methods for identifying agents that cause a lethal phenotype, and agents thereof” (Deltagen Proteomics, Inc., priority 2000, dated 2003)
Where no end group is shown, it is not given here.

Experiments:
HT29 colon cancer cells = assay: HT29 floater assay (negative selection); format: cell-based; details: for level of floaters relative to background: Sort VI clones, FIG. 10
Protocol: HT29 cells were tested for feasibility in the floater cell assay as follows. Briefly, six flasks were inoculated with 6.25×10^5 HT29 cells/flask on Day 0. On Day 1, after the cells had been allowed to adhere to the solid support, two of these flasks were infected with retroviral supernatant containing the retroviral vector pVT324, which includes a selectable drug resistant marker (e.g. neomycin), and which constitutively expresses a green fluorescent protein. Of the remaining four flasks, two were mock infected (i.e. exposed to all of the same reagents/conditions as flasks 1 and 2, minus the retrovirus, see “Example 3C”) and two were left undisturbed. On Day 2, this procedure was repeated (i.e. a double infection). On Day 3 (and subsequently on Day 5) one flask was selected from each of the three groups and processed by separating and counting the floater and adherent cell populations. In the case of the floater cell population, the media was collected, centrifuged at 200×g for 10 minutes, and resuspended in PBS prior to removing a sample for counting on a hemocytometer. For the adherent cell population, cells were first removed from the flask by trypsinization, centrifuged, and then processed for analysis in a fashion analogous to the floater cells. To determine the inherent background level of floater cells present in the population, the ratio of the number of floater cells to the total number of cells (adherent cells+floater cells) was analyzed on both the Day 3 and Day 5 flasks that had not been manipulated. These numbers were compared with the analogous numbers taken from infected and mock-infected flasks to determine whether the retrovirus or transfection procedures altered background floater rates. To determine the susceptibility of HT29 cells to retroviral infection, the fraction of cells that expressed GFP in pVT324 infected flasks was calculated using flow cytometry.
Twenty T175 flasks were seeded with 2.2×10^6 HT29 cells/flask in McCoy's 5A media (Gibco BRL) modified with 10% FBS. On Day 1, each flask was infected (4 μg/ml polybrene, 50% volume) with a retroviral supernatant containing a commercially obtained brain cDNA library (“Example Three” above). On Day 2 the media was changed. On Day 3 both the floater and adherent cell populations were collected (separately) from the twenty flasks. Approximately 652,500 floaters were isolated from a theoretical background of 4.2×10^7 adherents (1.5% floaters) and frozen down for future studies. […] Additional floater cells were then collected Day 5, where the collection and counting procedures were repeated and some 7.8×10^6 floaters and 7.6×10^8 adherents were counted (1.03% floaters). […] The floater populations of Days 3 and 5 were then combined and readied for a genomic DNA prep using a QIAamp kit (Qiagen) following standard procedures. Briefly, some 9×10^6 floater cells in PBS were lysed to release gDNA. This material was passed over a QIAamp column that was then washed several times to remove protein and RNA contaminants. Twenty-seven micrograms of genomic DNA were then eluted from the columns with dH2O and treated with RNAse A to eliminate any RNA contamination. This gDNA was then subjected to PCR procedures to amplify the library sequences encoded therein. […]

HS294T cells = assay: Ethidium homodimer/Syto16 staining for cell death and nuclear morphology; format: cell-based
Protocol: (§1) Two cell lines, WM35 and HS294T, were plated out (50,000 cells per well, 24 well plate) and allowed to adhere. After 24 hours, the cells were treated for 4 hours with varying concentrations (5-80 μM) of Cisplatin (cis-platinum (II) diammine dichloride), a well-known chemotherapeutic agent that induces apoptosis. […] Adherent cell populations were then lifted from the solid support by trypsinization, centrifuged (400×g), and resuspended in PBS (0.125 ml). To observe the nuclear morphology and percent cell death in the WM35 and HS294T cell lines, cells from both floater and adherent populations were stained concurrently with Syto16 and ethidium homodimer (125 ul of cell suspension+2.5 ul 62.5 uM Syto16+[…] 100 ug/ml ethidium homodimer, 10 minutes at 37° C.). Ethidium homodimer is a membrane impermeant compound that fluoresces in the 617 nm range when it is intercalated with chromosomal DNA. Thus, in a mixed cell population containing both living and dead/dying cells, only those cells whose membranes have been compromised will stain with ethidium homodimer. In contrast, Syto 16 (Molecular Probes) is a membrane permeant dye that fluoresces in the 518 nm range when associated with chromosomal DNA. Together, these two dyes can be used to observe and distinguish the nuclear morphology in a population containing both living and dead/dying cells.

WM35 cells = assay: as above; format: cell-based
Protocol: as §1

WM35 (melanoma) cells = assay: Caspase-3 fluorescent substrate (Rhodamine 123-YVAD) and PI staining of floater cells, FACS; format: cell-based; details: PI-minus floater cells, 15 μg/ml, 18-24 hours after induction
Protocol: WM35 cells were passed one day prior to induction of apoptosis and incubated for 24 hrs to allow the cells to attach to the substrate. The media was subsequently removed, the remaining adherent cells washed 1× with PBS, and subsequently exposed to Cisplatin (15 μg/ml) in fresh media. Eighteen to twenty-four hours after the induction of apoptosis, the floater cell population was collected, pelleted by centrifugation (400×g), and resuspended at 3×10^6 cells/ml in PBS. Samples were then split into four groups: (1) uninduced minus Rhodamine 123-YVAD (substrate), (2) uninduced plus substrate, (3) induced minus substrate, and (4) induced plus substrate. For samples exposed to Rhodamine 123-YVAD substrate, 50 ul of a pre-warmed (37° C.) cell suspension was combined with 25 ul of a stock substrate solution (Cellprobe). Samples were incubated for 60 minutes at 37° C. and then placed on ice prior to FACS analysis. In addition to caspase-3 staining, a replicate of each sample was stained with propidium iodide to determine the percentage of cells within the population whose membranes had been compromised and the overlap between PI and caspase-3 staining. […] Emission spectra were read at 515-535 nm wavelength using the FL1 (PMT2) 525 nm blue filter.

T47D cells = assay: Kill curve in T47D cells (cell number after 5 days); format: cell-based
Protocol: Approximately 250,000 cells were seeded into each well of a six well plate. Cells were then grown in media containing camptothecin of varying concentrations (0-10 uM). After 5 days, the number of cells remaining in each of the camptothecin-treated wells was compared with untreated controls. From these experiments, it was determined that camptothecin concentrations ranging from 1-4 nM had no effect on T47D cell number over the course of the 5 days of treatment. […] In order to determine whether this level of treatment is concomitantly increasing the number of floaters in the population, several flasks are seeded with T47D cells and then treated with 1-4 nM concentrations of camptothecin. After a period of three to five days, the media is collected and the number of floater cells are counted and compared to the total number of cells in the flask (floaters+adherents).

[1] = test system: ecdysone receptor (pVgRXR); assay: Induction of GFP fluorescence from ecdysone-regulated vector pBIGFII in ECR293 cells; format: cell-based; details: 5 μM, cells containing pBIGFII and pVgRXR
Excerpt: As an alternative to the constitutive pCLMFG vector, an inducible construct that can be regulated by ecdysone was constructed as follows. The PmII/XhoI fragment from pVT324 was inserted into the MCS of the PIND vector (Invitrogen). This product was then digested with BgIII, blunt-ended and inserted into a pBabe-K-ras vector (pVT313-based) that had been digested with BamHI/XhoI and blunted (Klenow Fragment). The resulting vector was designated pBabe-Forward-1. The XbaI fragment of pVT324 was then inserted into the compatible site of pBabe-Forward-1. The resulting vector was designated pBIGFII. Vector pBIGFII was subsequently transfected into cells (ECR293, Invitrogen) that contain an endogenous copy of the ecdysone receptor (pVgRXR).

HuVECs 9F0293 cells = assay: Time course of detachment and PI staining of HuVECs (9F0293); format: cell-based, Human; details: 2 ug/ml
Protocol: To determine the time course in which dead and/or dying HuVECs detach from the solid support in response to a cytotoxic agent, 9F0293 cells were plated and subsequently treated with puromycin (2 ug/ml). Both floater and adherent cell populations were then collected at varying times (t=4, 7, 9, 16, 20, and 24 hours) and analyzed to determine (a) the percent PI^+ cells in the floater population and (b) the fraction of cells which became floaters. […] The fraction of floaters that stained with PI (PI^+ population) increased with time.

HT29 cells = assay: Induction of apoptosis in HT29 cells (detachment, nuclear morphology); format: cell-based; details: after 48 hours of treatment
[2] = biological target: epitope in the mitochondrial membrane that is exposed only in cells that are undergoing apoptosis (Jurkat cells, permeabilized with digitonin); assay: flow cytometry, digitonin-permeabilized Jurkat cells, 0 hours in anti-FAS antibody
[3] = biological target: epitope in the mitochondrial membrane that is exposed only in cells that are undergoing apoptosis (Jurkat cells, permeabilized with digitonin); assay: flow cytometry, digitonin-permeabilized Jurkat cells, 21 hours in anti-FAS antibody (1 ug/ml)
[4] = floater population, 5-80 μM for 4 hours, 18-24 hrs later

In the case of “0328: cytotoxic agent isolated from clone 0328, SEQ ID NO: 23 (XXAVAWLGSTGMTCGAQRLRSLR; X: residue not identified in the source) [compound 0328]”, the “level of floaters relative to background” value (HT29 colon cancer cells) is reported as “increased levels of floaters that were statistically significant relative to background” and the floater rate (HT29 colon cancer cells; individual clone reintroduced into HT29 cells) is reported as 2%.

With N.N.[Cl-].[Cl-].[Pt+2] [Cisplatin, cis-platinum (II) diammine dichloride] the “ethidium homodimer staining of adherent cell population” value (HS294T cells; adherent population) was < 10%, the “cells showing condensed or fragmented nuclei” value (HS294T cells; ethidium homodimer stained floater cells, fluorescent microscopy) was < 20% and the “floater cells stained with ethidium homodimer” value (HS294T cells; [4]) was “greater than 50%”. The “ethidium homodimer staining of adherent cell population” value (WM35 cells; adherent population) was < 10%, the “ethidium homodimer staining of floaters” value (WM35 cells; [4]) was 45-50% and the “condensed or fragmented nuclei in floaters” value (WM35 cells; floaters, higher concentrations) was 40-50%. It also gave a caspase-3 positive cells (WM35 (melanoma) cells) of 94.6%.

CC[C@@]1(O)C(=O)OCc2c1cc1n(c2=O)Cc2cc3ccccc3nc2-1 [camptothecin] was tested, and the “cell number relative to the untreated control” value (T47D cells; 10 nM, 5 days) was “roughly one third” and the “concentrations with no effect on cell number” value (T47D cells; 5 days of treatment) was 1 to 4 nM.

In the case of CC(C)CC[C@@H](O)[C@](C)(O)[C@H]1CC[C@@]2(O)C3=CC(=O)[C@@H]4C[C@@H](O)[C@@H](O)C[C@]4(C)[C@H]3CC[C@]12C [ponesterone A], the “increase of the level of fluorescence” value [1] is reported as “approximately thirty”.

In the case of COc1ccc(C[C@H](N)C(=O)N[C@H]2[C@@H](O)[C@H](n3cnc4c(N(C)C)ncnc43)O[C@@H]2CO)cc1 [puromycin], the “time point at which the majority of cells detached” value (HuVECs 9F0293 cells) is reported as 16 h and the “floater cells in the PI+ gate” value (HuVECs 9F0293 cells; by 20 hours) is reported as “nearly all”.

CSc1ccc(/C=C2/C(C)=C(CC(=O)O)c3cc(F)ccc32)cc1 [sulindac sulfide] was tested, and the “detachment and apoptotic morphology” value (HT29 cells) was “majority of the cells had detached from the dish and showed typical apoptotic morphology”.

For “Apo2.7 monoclonal antibody (Coulter Immunotech), fluorescent R-phycoerythrin-cyanin labeled”, the percent of population labeled [2] was 4% and the percent of population labeled [3] was 81%.

B1: 0195: cytotoxic agent isolated from clone 0195, SEQ ID NO: 22 (protein)
chain: PEILSRSHLLLAGQTLIGVVAMVVEAEGEEDPWAVEAMEVVAVVVVAEEDFPVEVVAVEDSSELVTGSVLIPPVRI
In the case of B1, the “level of floaters relative to background” value (HT29 colon cancer cells) is reported as “increased levels of floaters that were statistically significant relative to background”.

B2: BID: BID clone among the Sort VI clones tested in the HT29 floater assay (FIG. 10) (protein, UniProt P55957 1-195, looked up)
BH3-interacting domain death …: MDCEVNNGSSLRDECITNLLVFGFLQSCSDNSFRRELDALGHELPVLAPQWEGYDELQTDGNRSSHSRLGRIEADSESQEDIIRNIARHLAQVGDSMDRSIPPGLVNGLALQLRNTSRSEEDRNRDLATALEQLLQAYPRDMEKEKTMLVLALLLAKKVASHTPSLLRDVFHTTVNFINQNLRTYVRSLARNGMD
B2 was tested, and the “level of floaters relative to background” value (HT29 colon cancer cells) was “increased levels of floaters that were statistically significant relative to background”.
